How the values were obtained:
[1] = tested on: test strain 923 pPvra-lux; experiment: Secondary screen / synergy confirmation of Top 40, relative growth with oxacillin; assay type: cell-based, Staphylococcus aureus; details: Top 40 library, compound at maximum non-GI conc
Protocol: In the secondary screen each microtiter plate contained either cells in TSB alone (16 replicates), cells with oxacillin (2 μg/mL, 31 replicates), or cells with test compound and oxacillin (2 μg/mL, 49 wells). Each compound was assayed in four separate biological replicates.
Synergy Confirmation of “Top 40”. […]

[2] = tested on: vraSR promoter (Pvra-lux reporter in strain 923); assay type: cell-based, Staphylococcus aureus; details: for RL Ox avg: Top 40 library, with oxacillin, compound at maximum non-GI conc; for vraSR repressing synergist: overall class from syn and rep
Protocol: In the secondary screen each microtiter plate contained either cells in TSB alone (16 replicates), cells with oxacillin (2 μg/mL, 31 replicates), or cells with test compound and oxacillin (2 μg/mL, 49 wells). Each compound was assayed in four separate biological replicates. […]

[3] = tested on: test strain (923 pPvra-lux); experiment: Growth inhibition by compound alone (maximum non-growth-inhibitory concentration); assay type: cell-based, Staphylococcus aureus; details: for maximum non-GI conc: compound alone, maximum concentration where it did NOT inhibit growth
[4] = tested on: test strain 923 pPvra-lux (USA300 MRSA); experiment: Primary screen, relative growth in presence of oxacillin; details: compound 10 μM with oxacillin 2 μg/mL, absorbance 24 h, <0.50 = dead cells = hit
[5] = tested on: vraSR promoter (Pvra-lux reporter in strain 923); experiment: Primary screen, relative luminescence (vraSR expression); details: primary screen, compound 10 μM with oxacillin 2 μg/mL; <0.50 = vraSR repressed = hit

| SMILES | RG Ox avg [1] | RL Ox avg [2] | vraSR repressing synergist [2] | maximum non-GI conc [3] | RG avg (relative growth) [4] | RL avg (relative luminescence) [5] | concentration ([3]; compound tested alone, concentration where it did NOT inhibit growth (subinhibitory), Top 40 leads after secondary screen) |
| --- | --- | --- | --- | --- | --- | --- | --- |
| CC(=O)Nc1ccc(Nc2cc(C(C)C)nc3c(-c4ccccc4)cnn23)cc1 [F3348-0533] | 0.02 | 0.10 | 1. confirmed | 400 µg/mL | 0.02 | 0.01 | – |
| O=C(Nc1ccc(Cl)c(Cl)c1)N(Cc1ccsc1)Cc1ccco1 [F5854-2599] | 1.01 | 0.54 | 3. no effect | 40 µg/mL | 0.01 | −0.06 | – |
| Cn1cccc1C(CNC(=O)Nc1ccc(Cl)c(Cl)c1)N1CCOCC1 (stereo not drawn) [F5833-1551] | 0.99 | 0.56 | 3. no effect | 40 µg/mL | 0.01 | −0.03 | – |
| CC1CC1c1ccc(CCC(=O)Nc2ccc(Cl)c(Cl)c2)o1 (stereo not drawn) [F1118-0378] | 1.00 | 0.65 | 3. no effect | 40 µg/mL | 0.01 | 0.42 | – |
| Cc1ccc(C)c2sc(NC(=O)c3cccs3)nc12 [F0600-1305] | 0.94 | 0.15 | 3. no effect | 400 µg/mL | 0.36 | 0.22 | – |
| Cc1ccc(-c2nnc(NC(=O)c3ccc(S(=O)(=O)N4CCc5ccccc5C4)cc3)o2)c(C)c1 [F2518-0213] | 1.14 | 0.33 | 3. no effect | 4 µg/mL | 0.01 | −0.01 | – |
| Cc1cc(SCC(=O)Nc2cccc(C(F)(F)F)c2)n2ncc(-c3ccccc3)c2n1 [F3305-0354] | 1.01 | 0.61 | 3. no effect | 40 µg/mL | 0.00 | 0.03 | – |
| O=S(=O)(Nc1cccc(-c2nc3ccccc3s2)c1)c1ccc(F)c(Cl)c1 [F3394-0078] | 1.24 | 0.41 | 3. no effect | 40 µg/mL | 0.26 | 0.26 | – |
| CC1CCN(C(C)CNC(=O)Nc2ccc(C(F)(F)F)cc2)CC1 (stereo not drawn) [F2438-0002] | 0.95 | 0.62 | 3. no effect | 40 µg/mL | −0.02 | −0.18 | – |
| O=C(Nc1cccc(C(F)(F)F)c1)N1CCN(c2ccc(Nc3cccnc3)nn2)CC1 [F5237-0056] | 1.10 | 0.72 | 3. no effect | 40 µg/mL | 0.02 | −0.05 | – |
| CC(=O)Nc1ccc(Nc2cc(C(C)(C)C)nc3c(-c4ccccc4)c(C)nn23)cc1 [F3348-0030] | 0.01 | 0.05 | 1. confirmed | 400 µg/mL | 0.05 | 0.12 | – |
| COc1ccc(Cl)c2sc(NC(=O)c3ccccc3NS(=O)(=O)c3ccc(F)cc3)nc12 [F2708-0138] | 1.04 | 0.69 | 3. no effect | 40 µg/mL | 0.02 | −0.07 | 4 µg/mL |
| COc1cc(OC)cc(C(=O)Nc2nnc(-c3ccc(Br)cc3)o2)c1 [F2518-451] | – | – | – | – | −0.01 | −0.10 | – |
| COc1cc(OC)cc(-c2nnc(NC(=O)c3ccc(Cl)cc3Cl)o2)c1 [F1374-651] | – | – | – | – | 0.04 | 0.38 | – |
| CSc1ccccc1-c1nnc(NC(=O)c2ccc(F)cc2)o1 [F2645-12] | – | – | – | – | 0.41 | 0.51 | – |
| COc1ccc(-c2nnc(NC(=O)c3ccc(C(=O)c4ccccc4)cc3)o2)cc1 [F1374-443] | – | – | – | – | 0.05 | 0.39 | – |

— patent US9675592B2, “Methods and compositions for bacteria infections” (priority 2013, dated 2017)
